Structures can show the parent of a compound that is named as a salt.
Columns and labels:
L6 rat myoblast = experiment: Sterol biosynthesis in L6 rat myoblast (14C acetic acid labeling); assay type: cell-based; conditions: 14C cholesterol from 14C acetic acid, 3 hours pre-incubation + 3 hours labeling
Protocol: C.) Protocol for Sterol Biosynthesis in L6 Rat Myoblast:
(§1) Cell Culture, Compounds Treatment and Cell Labeling:
L6 rat myoblast purchased from ATCC(CRL-1458) were grown in T-150 vented culture flasks and seeded on 12-well culture plates at a density of 60,000 cells per well. The cells were grown in DMEM, (Dulbecco's Modified Eagle Medium) (Gibco, #10567-014) containing 10% heat inactivated FBS (Fetal Bovine Serum) (Gibco # 10082-139) for 72 hours until reaching confluence. The cells were pre-incubated in media with compound and 0.2% DMSO (dimethyl sulfoxide) for 3 hours and then labeled by incubating in medium containing compound, 0.2% DMSO and 1 μCi/per mL of ^14C acetic acid for an additional 3 hours. […]
Lipid ester bonds were hydrolyzed by saponification of the lysates at 60° C. for 2 hours. […] The amount of ^14C cholesterol was quantified by scintillation counting in a Trilux 1450 plate reader (Wallac). The IC50 values were calculated from % inhibitions relative to negative controls vs. compound concentration on Microsoft excel 2000 data analysis wizard using a sigmoid inhibition curve model with formula: y=Bmax(1−(x^n/K^n+x^n))+y2 Where K is the IC50 for the inhibition curve, X is inhibitor concentration, Y is the response being inhibited and Bmax+Y2 is the limiting response as X approaches zero.

[1] = biological target: T1, HMGCoA (3-Hydroxy-3-methylglutaryl CoA) Reductase (Rattus norvegicus, UniProt P51639); experiment: HMGCoA reductase assay with rat liver microsomes (14C-HMGCoA); assay type: biochemical; conditions: 45 min at 37° C.
T1 construct: Male Charles River Sprague-Dawley rats were fed with 2.5% cholestyramine in rat chow diets for 5 days before sacrificing; from tissue; host or cells: liver microsomes of male Sprague-Dawley rats fed cholestyramine
T1 sequence (P51639 1-887): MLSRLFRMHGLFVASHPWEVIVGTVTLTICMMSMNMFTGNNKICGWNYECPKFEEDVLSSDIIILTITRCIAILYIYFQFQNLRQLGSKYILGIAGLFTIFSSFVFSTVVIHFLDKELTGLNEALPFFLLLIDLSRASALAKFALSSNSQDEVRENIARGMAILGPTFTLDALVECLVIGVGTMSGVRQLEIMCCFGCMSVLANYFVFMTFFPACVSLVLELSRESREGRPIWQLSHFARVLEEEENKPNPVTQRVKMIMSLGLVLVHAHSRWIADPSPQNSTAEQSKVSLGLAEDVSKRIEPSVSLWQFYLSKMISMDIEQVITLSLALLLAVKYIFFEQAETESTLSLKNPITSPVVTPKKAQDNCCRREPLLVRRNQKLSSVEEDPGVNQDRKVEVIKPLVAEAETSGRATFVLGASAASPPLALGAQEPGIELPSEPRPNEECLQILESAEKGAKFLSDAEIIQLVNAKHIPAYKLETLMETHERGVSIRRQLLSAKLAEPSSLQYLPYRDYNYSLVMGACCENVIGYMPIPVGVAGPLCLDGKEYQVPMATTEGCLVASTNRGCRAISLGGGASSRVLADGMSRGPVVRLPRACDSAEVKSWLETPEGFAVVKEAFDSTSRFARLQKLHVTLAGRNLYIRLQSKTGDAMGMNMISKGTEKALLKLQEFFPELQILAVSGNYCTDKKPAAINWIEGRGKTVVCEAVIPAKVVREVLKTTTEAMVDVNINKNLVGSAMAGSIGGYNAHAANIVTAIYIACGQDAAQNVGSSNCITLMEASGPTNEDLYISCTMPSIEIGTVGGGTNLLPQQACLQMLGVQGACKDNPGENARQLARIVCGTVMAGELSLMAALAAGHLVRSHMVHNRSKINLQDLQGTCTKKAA
Source text: (See, e.g., J. of Lipid Research 1998; 39: 75-84; Analytical Biochemistry, 1991; 196: 211-214; RR740-01077 Pharmacology 8, Nov., 1982) Accordingly, such compounds and formulations comprising such compounds are useful for treating, controlling or preventing inter alia hypercholesterolemia, hyperlipidemia, hypertriglyceridemia or atherosclerosis.
Rat Liver Microsomal Isolation Procedure:
Male Charles River Sprague-Dawley rats were fed with 2.5% cholestyramine in rat chow diets for 5 days before sacrificing. Livers were minced and homogenized in a sucrose homogenizing solution in an ice bath 10 times. Homogenates were diluted into a final volume of 200 mL, and centrifuged 15 min. with a Sorvall Centrifuge at 5° C., 10,000 rpm (12,000×G). The upper fat layer was removed and the supernatant decanted into fresh tubes. This step was repeated one more time before transferring the supernatant into ultracentrifuge tubes and centrifuged at 36,000 rpm (105,000×G) for an hour at 5° C. The resulting supernatant was discarded and the pellet was added to total of 15 mL 0.2 M KH2PO4. Pellets were homogenized gently by hand about 10 times. Samples were pooled and diluted into total of 60 mL buffer. The protein concentration of the homogenate was determined by the […] using a BCA kit from Pierce Chemical Company. 1 mL aliquots of microsomes were kept frozen in liquid nitrogen.
HMGCoA (3-Hydroxy-3-methylglutaryl CoA) Reductase Assay:
[3-^14C]-HMGCoA (57.0 mCi/mmol) was purchased from Amersham Biosciences, UK. HMGCoA, mevalonolactone, NADPH were purchased from Sigma Chemical Co. AG 1-8X resin was purchased from Bio-Rad Laboratory.
One μL of dimethyl sulfoxide (DMSO) or 1 μL of DMSO containing a test compound at a concentration sufficient to give a final assay concentration of between 0.1 nM to 1 mM was placed into each well of a Corning 96 well plate. […] Scintillation cocktail (Ultima-Flo-M) was added into each well and plates counted on a Trilux Microbeta Counter. The IC50 values were calculated with GraphPad software (Prism). […]

rat hepatocytes = experiment: Sterol biosynthesis in rat hepatocytes (14C acetic acid labeling); assay type: cell-based; conditions: Hepatocyte, 14C cholesterol from 14C acetic acid, 4 hrs pre-incubation + 4 hrs labeling
Protocol: Protocol for Sterol Biosynthesis in Rat Hepatocytes:
as §1
Frozen rat hepatocytes purchased from XenoTech(cat# N400572) were seeded on 6-well collagen I coated plates at a density of […]. The cells were grown in DMEM medium (Gibco, #11054-020) containing 10% FBS and 10 mM HEPES(Gibco # 15630-080) for 24 hrs. The cells were pre-incubated with compounds for 4 hrs and then labeled by incubating in medium containing 1 uCi/per ml of ^14C acetic acid for an additional 4 hrs. After labeling, the cells were washed twice with 5 mM MOPS solution containing 150 mM NaCl and 1 mM EDTA and collected in the lysis buffer containing 10% KOH and 80%(vol.) ethanol.
Cholesterol Extraction and Data Analysis:
In order to separate labeled cholesterol from labeled non-cholesterol lipids, the cells lysates were subject to saponification at 60° C. for 2 hrs. The lysates were then combined with 0.5 volume of H2O and 2 volumes of hexane, followed by 30 minutes of vigorous shaking. After the separation of two phases, the upper-phase solution was collected and combined with 5 volumes of scintillation cocktail. The amount of ^14C cholesterol was quantified by liquid scintillation counting. The IC50 values were calculated with GraphPad software (Prism 3.03).

Row | SMILES | IC50 (L6 rat myoblast) | melting point | IC50 [1] | IC50 (rat hepatocytes)
1 | CC(C)n1c(CC[C@@H](O)C[C@@H](O)CC(=O)[O-])c(-c2ccc(F)cc2)c(-c2ccccc2)c1C(=O)Nc1ccccc1.[Na+] [Example 1, (3R,5R)-7-[3-(4-fluoro-phenyl)-1-isopropyl-4-phenyl-5-phenylcarbamoyl-1H-pyrrol-2-yl]-3,5-dihydroxy-heptanoic Acid Sodium Salt] | 157 nM | 239 to 241 °C | 12 nM | 0.74 nM
2 | CC(C)n1c(CC[C@@H](O)C[C@@H](O)CC(=O)O)c(-c2ccc(F)cc2)c(-c2ccccc2)c1C(=O)Nc1ccc(F)cc1 [Example 6, (3R,5R)-7-[3-(4-Fluoro-phenyl)-5-(4-fluoro-phenylcarbamoyl)-1-isopropyl-4-phenyl-1H-pyrrol-2-yl]-3,5-dihydroxy-heptanoic Acid Sodium Salt] | – | – | 4.1 nM | 0.23 nM
3 | CC(C)n1c(CCC(O)CC(O)CC(=O)[O-])c(-c2ccc(F)cc2)c(-c2ccccc2)c1C(=O)Nc1ccc(C(=O)[O-])cn1.[Na+].[Na+] (stereo not shown) [Example 25, 6-{[5-(6-Carboxy-3,5-dihydroxy-hexyl)-4-(4-fluoro-phenyl)-1-isopropyl-3-phenyl-1H-pyrrole-2-carbonyl]-amino}-nicotinic Acid di-sodium Salt] | 2270 nM | > 250 °C | 0.61 nM | 0.19 nM
4 | COC(=O)C[C@H]1C[C@@H](CCc2c(-c3ccc(F)cc3)c(-c3ccc(F)cc3)cn2C(C)C)OC(C)(C)O1 [Example 24, (4R,6R)-(6-{2-[3,4-Bis-(4-fluoro-phenyl)-1-isopropyl-1H-pyrrol-2-yl]-ethyl}-2,2-dimethyl-[1,3]dioxan-4-yl)-acetic Acid Methyl Ester] | – | 55 to 57 °C | – | –
5 | COc1ccc([C@H](C)NC(=O)c2c(-c3ccc(F)cc3)c(-c3ccc(F)cc3)c(CC[C@@H](O)C[C@@H](O)CC(=O)[O-])n2C(C)C)cc1.[Na+] [Example 152, (3R,5R)-7-{3,4-Bis-(4-fluoro-phenyl)-1-isopropyl-5-[(S)—I-(4-methoxy-phenyl)-ethylcarbamoyl]-1H-pyrrol-2-yl]-3,5-dihydroxy-heptanoic Acid Sodium Salt] | – | 227 to 229 °C | – | –
6 | CC(C)n1c(/C=C/[C@@H](O)C[C@@H](O)CC(=O)[O-])c(-c2ccc(F)cc2)c(-c2ccccc2)c1C(=O)NCc1cccc(C#N)c1.[Na+] [Example 147, (3R,5S)-7-[5-(3-Cyano-benzylcarbamoyl)-3-(4-fluoro-phenyl)-1-isopropyl-4-phenyl-1H-pyrrol-2-yl]-3,5-dihydroxy-hept-6-enoic Acid Sodium Salt] | – | 208 to 210 °C | – | –
